Measurements reported in patent publication US9796741B2 (Achillion Pharmaceuticals, Inc., priority 2014, dated 2017).

Biological target: Human factor D (Homo sapiens (Human), UniProt P00746)
Assay: Human Factor D Assay
Type: biochemical
Details: human factor D 80 nM, substrate Z-L-Lys-SBzl, DTNB
Outline: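 Serum-purified factor D (80 nM final) preincubated 5 min at room temperature with compound in 50 mM Tris, 1M NaCl, pH 7.5. Z-L-Lys-SBzl and DTNB added at 100 μM each; OD405 followed kinetically over 30 min. IC50 by non-linear regression of % inhibition.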

Human factor D, sequence (P00746 26-253): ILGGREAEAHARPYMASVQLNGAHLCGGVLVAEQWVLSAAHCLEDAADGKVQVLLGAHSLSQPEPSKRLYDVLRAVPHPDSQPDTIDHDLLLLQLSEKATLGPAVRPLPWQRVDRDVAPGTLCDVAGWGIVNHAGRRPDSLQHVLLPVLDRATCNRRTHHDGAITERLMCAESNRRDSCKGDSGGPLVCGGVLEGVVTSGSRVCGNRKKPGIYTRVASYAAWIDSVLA

Row | Compound | IC50 [µM]
1 | CC(=O)c1cn(CC(=O)N2C[C@H](F)C[C@H]2C(=O)Nc2cccc(-c3ncccc3Cl)c2F)c2ccc(-c3cnc(C)nc3)cc12 [Compound 164, (2S,4R)-1-(2-(3-acetyl-5-(2-methylpyrimidin-5-yl)-1H-indol-1-yl)acetyl)-N-(3-(3-chloropyridin-2-yl)-2-fluorophenyl)-4-fluoropyrrolidine-2-carboxamide] | < 1
2 | CC(=O)c1cn(CC(=O)N2C[C@H](F)C[C@H]2C(=O)Nc2noc(-c3ccccc3Cl)n2)c2ccc(-c3ccnnc3)cc12 [Compound 182, (2S,4R)-1-(2-(3-acetyl-5-(pyridazin-4-yl)-1H-indol-1-yl)acetyl)-N-(5-(2-chlorophenyl)-1,2,4-oxadiazol-3-yl)-4-fluoropyrrolidine-2-carboxamide] | < 1
3 | CC(=O)c1cn(CC(=O)N2C[C@H](F)C[C@H]2C(=O)Nc2cccc(-c3ccccc3Cl)c2F)c2ccc(-c3cnc(O)nc3)cc12 [Compound 186, (2S,4R)-1-(2-(3-acetyl-5-(2-hydroxypyrimidin-5-yl)-1H-indol-1-yl)acetyl)-N-(2′-chloro-2-fluorobiphenyl-3-yl)-4-fluoropyrrolidine-2-carboxamide] | < 1
4 | COCCNc1ncc(-c2ccc3c(c2)c(C(C)=O)cn3CC(=O)N2C[C@H](F)C[C@H]2C(=O)Nc2cccc(-c3ccccc3Cl)c2F)cn1 [Compound 187, (2S,4R)-1-(2-(3-acetyl-5-(2-(2-methoxyethylamino)pyrimidin-5-yl)-1H-indol-1-yl)acetyl)-N-(2′-chloro-2-fluorobiphenyl-3-yl)-4-fluoropyrrolidine-2-carboxamide] | < 1
5 | CNc1ncc(-c2ccc3c(c2)c(C(C)=O)cn3CC(=O)N2C[C@H](F)C[C@H]2C(=O)Nc2cccc(-c3ccccc3Cl)c2F)cn1 [Compound 188, (2S,4R)-1-(2-(3-acetyl-5-(2-(methylamino)pyrimidin-5-yl)-1H-indol-1-yl)acetyl)-N-(2′-chloro-2-fluorobiphenyl-3-yl)-4-fluoropyrrolidine-2-carboxamide] | < 1
